This assay has as its target Glycogen synthase kinase-3 beta (Homo sapiens, UniProt P49841). In words: GSK3beta kinase inhibitor potency, dose response, biochemical, luminescence, cell-free homogeneous, retest (AID 434954).
Glycogen synthase kinase-3 beta, sequence (P49841 whole entry): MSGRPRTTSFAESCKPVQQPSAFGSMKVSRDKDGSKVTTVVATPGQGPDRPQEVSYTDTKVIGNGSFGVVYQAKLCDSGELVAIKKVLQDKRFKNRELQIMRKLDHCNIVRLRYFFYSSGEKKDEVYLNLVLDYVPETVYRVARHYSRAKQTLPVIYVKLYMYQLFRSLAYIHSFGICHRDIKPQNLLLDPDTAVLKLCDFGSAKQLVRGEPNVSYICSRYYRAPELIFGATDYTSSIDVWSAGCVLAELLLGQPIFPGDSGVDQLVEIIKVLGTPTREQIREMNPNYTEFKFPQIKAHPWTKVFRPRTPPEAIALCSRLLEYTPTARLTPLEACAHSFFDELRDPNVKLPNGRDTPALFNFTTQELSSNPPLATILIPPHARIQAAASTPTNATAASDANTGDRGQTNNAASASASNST
As to `CSc1nc(C)cc(-n2ccc(=O)[nH]c2=O)n1` [1-[6-methyl-2-(methylthio)-4-pyrimidinyl]pyrimidine-2,4-dione], the EC50 (commonly the concentration at which the effect is half-maximal) came to 25.8 µM. This counts as double-digit micromolar.
As for `Cc1ccc(S(=O)(=O)NC2=NC(=O)/C(=C/c3ccccc3)S2)cc1` [4-methyl-N-[(5Z)-4-oxo-5-(phenylmethylene)-2-thiazolyl]benzenesulfonamide], the EC50 is above 300 µM.
Under `CCOc1ccc2ncc(C(=O)c3ccc(OC)cc3)c(N3CCN(CC)CC3)c2c1` [[6-ethoxy-4-(4-ethylpiperazin-1-yl)quinolin-3-yl](4-methoxyphenyl)methanone] stands above 300 µM; under `NS(=O)(=O)c1ccc(CCNC(=O)CSc2nc3ccsc3c(=O)n2C2CC2)cc1` [MLS000586542], above 300 µM; under `Cc1ccc2c(c1)cc1c(=O)n(CC(=O)NCCN3CCCC3)nc(C)n12`, above 300 µM.
As for `N#Cc1ccccc1CSc1nnc(-c2ccncc2)o1` [2-[(5-pyridin-4-yl-1,3,4-oxadiazol-2-yl)sulfanylmethyl]benzenecarbonitrile], it took 20.7 µM to reach a half-maximal effect (EC50).
For `CC(CC(=O)Nc1nnc(C(C)(C)C)s1)c1ccccc1` (configuration not stated) [MLS001205585], the half-maximal effective concentration (EC50) was above 300 µM.
`CC1=C(C(=O)Nc2ccccc2F)C(c2ccsc2)C2C(=O)CC(C)(C)CC2=N1` (configuration not stated) [N-(2-fluorophenyl)-2,7,7-trimethyl-5-oxo-4-(3-thiophenyl)-1,4,6,8-tetrahydroquinoline-3-carboxamide] had an EC50 above 300 µM.
Next, `Nc1ccc2oc(-c3ccccc3Cl)cc(O)c-2c1=O` [6-amino-2-(2-chlorophenyl)-5-hydroxy-1-benzopyran-4-one]: above 300 µM; `COc1cccc(C(=O)NNC(=O)c2ccccc2)c1`: above 300 µM.
Molecule `COc1ccc(-n2c(=O)c3c4c(sc3n3c(S)nnc23)CCCC4)cc1` [1-mercapto-4-(4-methoxyphenyl)-6,7,8,9-tetrahydro[1]benzothieno[3,2-e][1,2,4]triazolo[4,3-a]pyrimidin-5(4H)-one] returned an EC50 above 300 µM.
`Cc1ccc(S(=O)(=O)N(C)CC(=O)N2CCCc3ccccc32)cc1` [SMR000076264]: the EC50 is above 300 µM.
Take `COc1cc(-c2n[nH]c3c2C(c2ccco2)C(C#N)C(=N)O3)cc(OC)c1OC` (configuration not stated) [MLS000698887]: a half-maximal effect (EC50) was put at 8.59 µM. In other words, the single-digit micromolar range.
`CCOC(=O)CSc1ccc2nnc(-c3ccncc3)n2n1` yielded an EC50 of 1.9 µM. Compared with the last molecule, the EC50 is about 4.5-fold lower.
Next, `COc1ccc(C(=O)c2coc3ccc(O)cc23)cc1` [MLS001198628]: 13.2 µM.
Under `c1ccc(Nc2nc(-c3ccccc3)nc3ccccc23)cc1` [N,2-diphenylquinazolin-4-amine] stands above 300 µM; under `c1ccc(CCNCC2COc3ccccc3O2)cc1` (configuration not stated), above 300 µM.
Next, `CCc1nn(CC(=O)NCCN2CCOCC2)c(=O)c2cc3c(OC)cccc3n12` [2-(4-ethyl-9-methoxy-1-oxidanylidene-[1,2,4]triazino[4,5-a]indol-2-yl)-N-(2-morpholin-4-ylethyl)ethanamide]: above 300 µM; `O=C(NCc1ccncc1)C1CCC(=O)N(CCc2ccc(Cl)cc2)C1` (configuration not stated) [MLS001100847]: above 300 µM; `Nc1nonc1-n1nnc(C(=O)NN=Cc2c(F)cccc2Cl)c1-c1ccc2c(c1)OCO2` [1-(4-amino-1,2,5-oxadiazol-3-yl)-5-(1,3-benzodioxol-5-yl)-N-[(2-chloro-6-fluorophenyl)methylideneamino]-4-triazolecarboxamide]: 1.58 µM.
With `COc1cc(C=C2SC(Nc3ccc(O)cc3)=NC2=O)ccc1O` [MLS000778276], the midpoint of the response, the EC50, lay at 23.3 µM.
The molecule `O=C(Nc1ccccc1C(=O)O)c1nnc[nH]1` returned a half-maximal effective concentration (EC50) above 300 µM.
On to `COc1ccc(-n2sc3c(c2=S)-c2cc(OC)ccc2NC3(C)C)cc1`, for which the EC50 is above 300 µM.
Next, `O=c1c(-c2ccccc2)c(-c2ccccc2)oc2cc(O)cc(O)c12`: 24.6 µM.
As to `CCOC(=O)c1cnc2c(OC)cccc2c1N1CCN(c2ccc(OC)cc2)CC1`, the EC50 was above 300 µM.
In turn, `Cc1ccc2sc(N3CCN(CCNC(=O)c4ccco4)CC3)nc2c1C` [SMR000811862] returned an EC50 above 300 µM.
`COc1ccc2cc(C(=O)C3CCCN(C(=O)c4sc(C)nc4C)C3)ccc2c1` (configuration not stated) [SMR000653741] yielded an EC50 above 300 µM.
On to `CC1CCCCN1c1nnc(N)s1` (configuration not stated) [5-(2-methyl-1-piperidinyl)-1,3,4-thiadiazol-2-amine], for which the EC50 was above 300 µM.
`COc1ccc(N2C(=O)C3CCCN3C2c2ccccc2F)cc1` (configuration not stated) [MLS000117169]: the EC50 is above 300 µM.
In turn, `CCOC(=O)N1CCN(S(=O)(=O)c2cc(Br)cc3c2N(C(=O)C2CC2)CC3)CC1` [ethyl 4-[(5-bromanyl-1-cyclopropylcarbonyl-2,3-dihydroindol-7-yl)sulfonyl]piperazine-1-carboxylate] returned an EC50 above 300 µM.
`Cc1ccc(-c2nn(-c3ccccc3)cc2C=Nn2c(-c3ccncc3)n[nH]c2=S)cc1` [4-[[3-(4-methylphenyl)-1-phenyl-4-pyrazolyl]methylideneamino]-3-pyridin-4-yl-1H-1,2,4-triazole-5-thione] gave an EC50 above 300 µM.
Next, `COc1ccc(Nc2nc3ccccc3s2)cc1` [1,3-benzothiazol-2-yl-(4-methoxyphenyl)amine]: above 300 µM; `COc1cccc2c1cc1c(=O)n(CC(=O)NCCCc3ccccc3)nc(C)n12` [MLS001076397]: above 300 µM.
Next, `O=NCc1cn(-c2ccccc2)nc1-c1ccc2c(c1)OCCO2` [N-[[3-(2,3-dihydro-1,4-benzodioxin-6-yl)-1-phenylpyrazol-4-yl]methylidene]hydroxylamine]: 58.7 µM; `CCn1nc(NC(=O)Cc2ccc(OC)cc2)c2cc3cc(C)ccc3nc21`: above 300 µM.
`CCn1c(=O)cc(OCC(=O)N(C)c2ccccc2F)c2ccccc21` [2-(1-ethyl-2-oxidanylidene-quinolin-4-yl)oxy-N-(2-fluorophenyl)-N-methyl-ethanamide]: the EC50 was above 300 µM.
Under `CCOC(=O)c1cnc2ccc(C)cc2c1Nc1ccc(N2CCOCC2)cc1` [6-methyl-4-(4-morpholinoanilino)quinoline-3-carboxylic acid ethyl ester] stands above 300 µM; under `CC1(C)CC(=O)C2C(=Nc3ccccc3NC2c2ccc(F)cc2)C1` (configuration not stated) [SMR000515995], above 300 µM.
Under `CCCCC(=O)Nc1nc2c(OC)cc([N+](=O)[O-])cc2s1` [SMR000363192] stands above 300 µM.
As to `O=C(CN1C(=O)CCC1=O)Nc1ccc2c3c(cccc13)CC2` [N-(1,2-dihydroacenaphthylen-5-yl)-2-(2,5-dioxo-1-pyrrolidinyl)acetamide], the EC50 is above 300 µM.
In turn, `CC1CCN(c2oc(-c3ccccc3Cl)nc2C#N)CC1` [SMR000041709] registered an EC50 above 300 µM.
As for `FC(F)(F)COc1ccc(-n2ccnc2)nn1` [SMR000307161], the EC50 is above 300 µM.
Regarding `Cc1ccc(C2c3c([nH]c(=S)[nH]c3=O)N=C3CC(C)(C)CC(=O)C32)cc1` (configuration not stated) [8,8-dimethyl-5-(4-methylphenyl)-2-sulfanylidene-5,7,9,10-tetrahydro-1H-pyrimido[4,5-b]quinoline-4,6-dione], the EC50 is above 300 µM.
Under `CN(Cc1c(C(=O)NN=Cc2cccc(O)c2)nnn1-c1nonc1N)C1CCCCC1` [MLS001142859] stands 0.712 µM; under `O=C(CSc1nnc(CNC(=O)c2cccc(C(F)(F)F)c2)o1)NC1CCCCC1`, above 300 µM.
`COc1ccc(S(=O)(=O)Nc2c(C(=O)O)[nH]c3ccc(OC)cc23)c(OC)c1` [SMR000650153]: the midpoint of the response, the EC50, lay at 1.15 µM. That is a single-digit micromolar value.
`CCOc1ccc(-c2csc3[n+]2CC[N-]3)cc1[N+](=O)[O-]`: the EC50 was above 300 µM.
As for `c1csc(C2=Nn3c(nnc3-c3ccncc3)SC2)c1`, the midpoint of the response, the EC50, lay at 0.735 µM.
The molecule `CC[n+]1c(/C=C/N(C)c2ccccc2)oc2ccc(F)cc21` yielded an EC50 above 300 µM.
Next, `CC(C=Cc1ccccc1F)=NNC(=O)C(C)C` [N-[[(E)-4-(2-fluorophenyl)but-3-en-2-ylidene]amino]-2-methylpropanamide]: above 300 µM; `O=C(COC(=O)C1CCN(/C=C/C(=O)C(F)(F)F)CC1)Nc1ccccc1` [MLS000390182]: above 300 µM; `COC(=O)COc1ccc2occ(C(C)=O)c2c1`: above 300 µM.
For `Cc1ccc2c(c1)NC(c1cccs1)C1C(=O)CC(C)(C)CC1=N2` (configuration not stated) [3,9,9-trimethyl-6-thiophen-2-yl-6,8,10,11-tetrahydro-5H-benzo[b][1,4]benzodiazepin-7-one], the EC50 was above 300 µM.
On to `CCOC(=O)c1sc2c(c1C)C(c1cccs1)C1C(=O)CCCC1=N2` (configuration not stated) [MLS000082170], for which the EC50 is above 300 µM.
As to `COC(=O)c1ccc(-n2c(O)cc(N3CCN(C(=O)c4ccco4)CC3)c2O)cc1` [MLS000027707], the EC50 is above 300 µM.
`Cn1c(SCC(=O)Nc2ccccc2)nc2ccccc2c1=O` [2-(3-Methyl-4-oxo-3,4-dihydro-quinazolin-2-ylsulfanyl)-N-phenyl-acetamide]: the EC50 is above 300 µM.
Under `CCCc1cc(=O)oc2cc(C)c(CN3CCCC3)c(O)c12` [5-hydroxy-7-methyl-4-propyl-6-(1-pyrrolidinylmethyl)-2H-chromen-2-one] stands above 300 µM; under `Cc1cc(CN(C)C(=O)c2ccc(OC3CCN(CCc4ccccc4)CC3)cc2)on1` [MLS001100796], above 300 µM; under `Nc1nonc1-n1nnc(C(=O)NN=Cc2ccc(Cl)cc2Cl)c1CN1CCCC1` [1-(4-azanyl-1,2,5-oxadiazol-3-yl)-N-[(2,4-dichlorophenyl)methylideneamino]-5-(pyrrolidin-1-ylmethyl)-1,2,3-triazole-4-carboxamide], above 300 µM.
`CCCCOC(=O)C1C(C)=Nc2ncnn2C1c1cc(OC)c(OC)cc1OC` (configuration not stated) [butyl 5-methyl-7-(2,4,5-trimethoxyphenyl)-4,7-dihydro[1,2,4]triazolo[1,5-a]pyrimidine-6-carboxylate]: the EC50 was above 300 µM.
For the molecule `COC(=O)c1nnn(-c2nonc2N)c1CSc1nc2ccccc2o1` [methyl 1-(4-amino-1,2,5-oxadiazol-3-yl)-5-[(1,3-benzoxazol-2-ylthio)methyl]-1H-1,2,3-triazole-4-carboxylate], a half-maximal response (EC50) required 127 µM.
`O=C(O)c1cccc(Nc2ccnc(Nc3cccc(C(=O)O)c3)n2)c1` [MLS001213333] returned an EC50 above 300 µM.

The values are drawn from BindingDB's records for doi:10.7270/Q2TX3CTT (Broad Institute, 2010).
